Experimental data reported in ChEMBL document CHEMBL1201862, “PubChem BioAssay data set” (2004).
Calls of active or inactive are those of the source.

Tests used:
[1] = viability loss of HPDE-C7K cells – cell-based, fluorescence, HTS, primary screen (AID 431); format: functional; conditions: Homo sapiens
[2] = HPDE-C7 pancreatic duct cell viability loss – fluorescence, HTS (AID 430); format: functional, cell-based; conditions: Homo sapiens
[3] = Luminescence Cell-Based Dose Retest to Confirm Inhibitors of Cancer Stem Cells. [Related pubchem assays (depositor defined):AID2717, AID2721]; format: functional; conditions: Homo sapiens
[4] = cells; format: functional
[5] = molecular target: T1, fMet-Leu-Phe receptor (Homo sapiens, UniProt P21462); test: formyl peptide receptor binders – dose response (AID 519); format: functional
T1 sequence (P21462 whole entry): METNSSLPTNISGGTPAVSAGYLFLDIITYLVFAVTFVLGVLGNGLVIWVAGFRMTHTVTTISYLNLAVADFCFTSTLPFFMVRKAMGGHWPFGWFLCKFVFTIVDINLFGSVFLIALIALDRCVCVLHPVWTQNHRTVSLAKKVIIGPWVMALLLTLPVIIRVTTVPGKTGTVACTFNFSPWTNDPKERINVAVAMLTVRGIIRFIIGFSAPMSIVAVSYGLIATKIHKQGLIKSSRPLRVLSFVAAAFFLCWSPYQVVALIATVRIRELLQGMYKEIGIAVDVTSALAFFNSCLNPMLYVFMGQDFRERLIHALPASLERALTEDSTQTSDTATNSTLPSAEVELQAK

[6] = HepG2 cell cytotoxicity, dose response, cytotoxicity control for non-replicating M. tuberculosis project (AID 489018); format: functional; conditions: Mycobacterium tuberculosis
[7] = THP-1 cell cytotoxicity, dose response, cytotoxicity control for non-replicating M. tuberculosis project (AID 489025); format: functional
[8] = Vero E6 cell cytotoxicity, dose response, cytotoxicity control for non-replicating M. tuberculosis project, secondary assay (AID 492998); format: functional, VeroE6; conditions: Vero C1008
[9] = molecular target: Cytochrome P450 2C19 (Homo sapiens, UniProt P33261); test: Cytochrome panel assay with activity outcomes. Panel member name: p450-cyp2c19 Compounds with AC50 equal or less than 10 uM are considered active; format: functional; conditions: read-out: AC50
[10] = molecular target: Nonstructural protein 1 (Influenza A virus, UniProt Q194T2); format: functional, Influenza A virus (A/California/07/2009(H1N1))
[11] = molecular target: Cytochrome P450 3A4 (Homo sapiens, UniProt P08684);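 note: CYP3A4 tested as one member of a cytochrome P450 panel screen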
[12] = molecular target: T2, Zinc finger protein mex-5 (Caenorhabditis elegans, UniProt Q9XUB2); test: potency of MEX-5 RNA-binding blockers – biochemical, C. elegans, fluorescence polarization, dose response (AID 1960)
T2 sequence (Q9XUB2 whole entry): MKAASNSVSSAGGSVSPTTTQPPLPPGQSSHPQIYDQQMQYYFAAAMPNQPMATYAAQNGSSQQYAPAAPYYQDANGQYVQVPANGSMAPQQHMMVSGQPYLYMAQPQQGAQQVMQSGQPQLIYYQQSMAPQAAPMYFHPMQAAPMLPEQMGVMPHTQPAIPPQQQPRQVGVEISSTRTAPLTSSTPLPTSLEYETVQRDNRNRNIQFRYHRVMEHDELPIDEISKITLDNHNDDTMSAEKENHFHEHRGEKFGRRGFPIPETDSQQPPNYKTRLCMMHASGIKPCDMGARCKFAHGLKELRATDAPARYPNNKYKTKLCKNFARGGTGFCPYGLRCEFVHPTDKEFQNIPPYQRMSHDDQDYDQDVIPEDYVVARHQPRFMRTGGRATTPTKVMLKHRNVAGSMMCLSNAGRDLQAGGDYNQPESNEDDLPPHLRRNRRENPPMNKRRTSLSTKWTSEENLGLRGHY

[13] = molecular target: T3, Aminopeptidase N (Plasmodium falciparum FcB1/Columbia, UniProt O96935); test: malaria alanyl aminopeptidase activity blockers – biochemical, fluorogenic H-Leu-NHMec substrate, 1536-well (AID 1445); parameters: species or system Plasmodium falciparum 3D7, 3D7
T3 sequence (O96935 whole entry): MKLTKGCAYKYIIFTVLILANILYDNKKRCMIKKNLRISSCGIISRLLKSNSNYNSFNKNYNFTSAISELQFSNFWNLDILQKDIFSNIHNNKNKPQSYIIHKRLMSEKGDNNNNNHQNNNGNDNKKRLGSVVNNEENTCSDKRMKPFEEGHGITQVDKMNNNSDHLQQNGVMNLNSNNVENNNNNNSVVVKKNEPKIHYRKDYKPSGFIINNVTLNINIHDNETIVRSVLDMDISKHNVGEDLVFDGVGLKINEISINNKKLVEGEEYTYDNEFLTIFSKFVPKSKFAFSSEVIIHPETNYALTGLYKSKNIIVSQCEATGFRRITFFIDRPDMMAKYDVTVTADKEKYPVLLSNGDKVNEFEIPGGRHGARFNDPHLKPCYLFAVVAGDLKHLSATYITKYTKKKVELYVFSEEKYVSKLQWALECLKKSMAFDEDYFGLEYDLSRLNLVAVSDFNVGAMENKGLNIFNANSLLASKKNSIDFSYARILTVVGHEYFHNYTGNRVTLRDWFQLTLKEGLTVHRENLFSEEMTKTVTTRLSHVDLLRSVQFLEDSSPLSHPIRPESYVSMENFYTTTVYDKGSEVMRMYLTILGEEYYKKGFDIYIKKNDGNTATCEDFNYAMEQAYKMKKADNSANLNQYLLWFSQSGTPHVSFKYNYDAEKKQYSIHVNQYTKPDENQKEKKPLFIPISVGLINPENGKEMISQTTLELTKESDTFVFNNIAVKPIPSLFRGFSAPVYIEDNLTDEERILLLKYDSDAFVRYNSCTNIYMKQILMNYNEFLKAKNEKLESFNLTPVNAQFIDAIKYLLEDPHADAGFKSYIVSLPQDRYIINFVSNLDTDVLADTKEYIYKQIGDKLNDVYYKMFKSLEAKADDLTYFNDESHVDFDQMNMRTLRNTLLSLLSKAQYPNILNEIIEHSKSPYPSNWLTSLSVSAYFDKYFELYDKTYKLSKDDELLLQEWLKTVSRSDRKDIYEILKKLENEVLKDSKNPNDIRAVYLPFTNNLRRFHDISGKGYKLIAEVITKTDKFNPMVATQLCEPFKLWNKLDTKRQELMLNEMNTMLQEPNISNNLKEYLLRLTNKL

[14] = molecular target: T4, RNA-binding protein pos-1 (Caenorhabditis elegans, UniProt G5EF15); test: disruptors of C. elegans POS-1 RNA interaction – biochemical, fluorescence polarization, dose response (AID 1964);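 note: purified POS-1 fused to maltose binding protein made in E. coli; potency of compounds blocking POS-1 binding to fluorescent RNA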
T4 sequence (G5EF15 whole entry): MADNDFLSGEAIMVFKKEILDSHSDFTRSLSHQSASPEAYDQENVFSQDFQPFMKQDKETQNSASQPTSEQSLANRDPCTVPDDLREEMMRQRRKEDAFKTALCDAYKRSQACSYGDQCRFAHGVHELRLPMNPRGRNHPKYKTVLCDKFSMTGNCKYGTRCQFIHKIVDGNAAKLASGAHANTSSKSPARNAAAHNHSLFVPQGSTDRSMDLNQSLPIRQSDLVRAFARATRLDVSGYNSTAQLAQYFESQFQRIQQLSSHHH

[15] = molecular target: G-protein coupled receptor 55 (Homo sapiens, UniProt Q9Y2T6); test: selective activators of receptor GPR55 – imaging, U2OS cells, beta-arrestin-GFP redistribution, primary screen (AID 1961); format: functional
[16] = molecular target: T5, Ubiquitin-conjugating enzyme E2 N (Homo sapiens, UniProt P61088); format: functional;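 note: Dose-response confirmation in a TR-FRET assay detecting UBC13-driven polyubiquitin chain formation, inhibition measured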
T5 sequence (P61088 whole entry): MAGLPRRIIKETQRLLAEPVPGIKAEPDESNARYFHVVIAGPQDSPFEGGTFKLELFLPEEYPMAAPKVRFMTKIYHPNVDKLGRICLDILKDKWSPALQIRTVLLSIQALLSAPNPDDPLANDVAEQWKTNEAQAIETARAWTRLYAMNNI

[17] = molecular target: Beta-galactosidase (Escherichia coli, UniProt Q8VNN2); test: detection-enzyme interference by beta-gal modulators – biochemical, E. coli enzyme, set 3, artefact control for CCR6 antagonist project, dose response (AID 504712); format: functional
[18] = molecular target: T6, Polyadenylate-binding protein 1 (Homo sapiens, UniProt P11940); test: MLLE domain peptide-binding blockers, IC50 – biochemical, fluorescence polarization, FITC-PAM2 peptide, dose response (AID 602259); format: functional; conditions: read-out: IC50_Mean
[19] = molecular target: T6, Polyadenylate-binding protein 1; test: MLLE binding blockers, Cy5 peptide tracer – biochemical, fluorescence polarization, Cy5-PAM2 peptide, secondary, miRNA deadenylation inhibitor project, dose response (AID 602260); format: functional; conditions: read-out: IC50_Mean
[20] = molecular target: Disintegrin and metalloproteinase domain-containing protein 17 (Homo sapiens, UniProt P78536); test: inhibition of ADAM17 substrate cleavage – biochemical, quenched FRET substrate, counter-screen for ADAM10 exosite inhibitor project, dose response (AID 743253)
[21] = molecular target: Paired box protein Pax-8 (Homo sapiens, UniProt Q06710); test: PAX8 transcriptional activity inhibition in RMG-I – RMG-I cells, luciferase, cherry-pick, dose response (AID 687027); format: functional, cell-based;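 note: luciferase reporter driven by Pax8 target thyroperoxidase promoter measured by SteadyGlo luminescence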
[22] = Luminescence Cell-Based Dose Response HTS to Identify Activators of Luciferase Translation or Activity in H4 […] Cells. [Related pubchem assays: 1829 (Project Summary), 1814 (Primary HTS)]; format: functional
[23] = Luminescence Cell-Based Dose Confirmation HTS to Identify Activators of 5'UTR Stem-Loop Driven Alpha-Synuclein mRNA Translation in H4 Neuroglioblastoma Cells. [Related pubchem assays: 1829 (Project Summary), 1814 (Primary HTS)]; format: functional
[24] = test system: H4; test: Luminescence Cell-Based Dose Response HTS to Identify Activators of 5'UTR Stem-Loop Driven Prion Protein mRNA Translation in H4 Neuroglioblastoma Cells. [Related pubchem assays: 1829 (Project Summary), 1814 (Primary HTS)]; format: functional; conditions: Homo sapiens
[25] = molecular target: Protein Wnt-3a (Mus musculus, UniProt P27467); test: antagonism of Wnt3a pathway luciferase reporter – Wnt-LIGHT cells, luminescence, selectivity assay for Gli-SUFU antagonist project, dose response (AID 651570); format: functional; conditions: read-out: IC50_Mean;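 note: Wnt-LIGHT reporter cells stimulated with conditioned medium from Wnt3a-producing cells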
[26] = molecular target: Voltage-gated N-type calcium channel alpha-1B subunit/Amyloid beta A4 precursor protein-binding family A member 1 (Homo sapiens, UniProt Q00975+Q02410); format: protein assay
Sequence of Voltage-gated N-type calcium channel alpha-1B subunit/Amyloid beta A4 precursor protein-binding family A member 1 (Q00975 whole entry): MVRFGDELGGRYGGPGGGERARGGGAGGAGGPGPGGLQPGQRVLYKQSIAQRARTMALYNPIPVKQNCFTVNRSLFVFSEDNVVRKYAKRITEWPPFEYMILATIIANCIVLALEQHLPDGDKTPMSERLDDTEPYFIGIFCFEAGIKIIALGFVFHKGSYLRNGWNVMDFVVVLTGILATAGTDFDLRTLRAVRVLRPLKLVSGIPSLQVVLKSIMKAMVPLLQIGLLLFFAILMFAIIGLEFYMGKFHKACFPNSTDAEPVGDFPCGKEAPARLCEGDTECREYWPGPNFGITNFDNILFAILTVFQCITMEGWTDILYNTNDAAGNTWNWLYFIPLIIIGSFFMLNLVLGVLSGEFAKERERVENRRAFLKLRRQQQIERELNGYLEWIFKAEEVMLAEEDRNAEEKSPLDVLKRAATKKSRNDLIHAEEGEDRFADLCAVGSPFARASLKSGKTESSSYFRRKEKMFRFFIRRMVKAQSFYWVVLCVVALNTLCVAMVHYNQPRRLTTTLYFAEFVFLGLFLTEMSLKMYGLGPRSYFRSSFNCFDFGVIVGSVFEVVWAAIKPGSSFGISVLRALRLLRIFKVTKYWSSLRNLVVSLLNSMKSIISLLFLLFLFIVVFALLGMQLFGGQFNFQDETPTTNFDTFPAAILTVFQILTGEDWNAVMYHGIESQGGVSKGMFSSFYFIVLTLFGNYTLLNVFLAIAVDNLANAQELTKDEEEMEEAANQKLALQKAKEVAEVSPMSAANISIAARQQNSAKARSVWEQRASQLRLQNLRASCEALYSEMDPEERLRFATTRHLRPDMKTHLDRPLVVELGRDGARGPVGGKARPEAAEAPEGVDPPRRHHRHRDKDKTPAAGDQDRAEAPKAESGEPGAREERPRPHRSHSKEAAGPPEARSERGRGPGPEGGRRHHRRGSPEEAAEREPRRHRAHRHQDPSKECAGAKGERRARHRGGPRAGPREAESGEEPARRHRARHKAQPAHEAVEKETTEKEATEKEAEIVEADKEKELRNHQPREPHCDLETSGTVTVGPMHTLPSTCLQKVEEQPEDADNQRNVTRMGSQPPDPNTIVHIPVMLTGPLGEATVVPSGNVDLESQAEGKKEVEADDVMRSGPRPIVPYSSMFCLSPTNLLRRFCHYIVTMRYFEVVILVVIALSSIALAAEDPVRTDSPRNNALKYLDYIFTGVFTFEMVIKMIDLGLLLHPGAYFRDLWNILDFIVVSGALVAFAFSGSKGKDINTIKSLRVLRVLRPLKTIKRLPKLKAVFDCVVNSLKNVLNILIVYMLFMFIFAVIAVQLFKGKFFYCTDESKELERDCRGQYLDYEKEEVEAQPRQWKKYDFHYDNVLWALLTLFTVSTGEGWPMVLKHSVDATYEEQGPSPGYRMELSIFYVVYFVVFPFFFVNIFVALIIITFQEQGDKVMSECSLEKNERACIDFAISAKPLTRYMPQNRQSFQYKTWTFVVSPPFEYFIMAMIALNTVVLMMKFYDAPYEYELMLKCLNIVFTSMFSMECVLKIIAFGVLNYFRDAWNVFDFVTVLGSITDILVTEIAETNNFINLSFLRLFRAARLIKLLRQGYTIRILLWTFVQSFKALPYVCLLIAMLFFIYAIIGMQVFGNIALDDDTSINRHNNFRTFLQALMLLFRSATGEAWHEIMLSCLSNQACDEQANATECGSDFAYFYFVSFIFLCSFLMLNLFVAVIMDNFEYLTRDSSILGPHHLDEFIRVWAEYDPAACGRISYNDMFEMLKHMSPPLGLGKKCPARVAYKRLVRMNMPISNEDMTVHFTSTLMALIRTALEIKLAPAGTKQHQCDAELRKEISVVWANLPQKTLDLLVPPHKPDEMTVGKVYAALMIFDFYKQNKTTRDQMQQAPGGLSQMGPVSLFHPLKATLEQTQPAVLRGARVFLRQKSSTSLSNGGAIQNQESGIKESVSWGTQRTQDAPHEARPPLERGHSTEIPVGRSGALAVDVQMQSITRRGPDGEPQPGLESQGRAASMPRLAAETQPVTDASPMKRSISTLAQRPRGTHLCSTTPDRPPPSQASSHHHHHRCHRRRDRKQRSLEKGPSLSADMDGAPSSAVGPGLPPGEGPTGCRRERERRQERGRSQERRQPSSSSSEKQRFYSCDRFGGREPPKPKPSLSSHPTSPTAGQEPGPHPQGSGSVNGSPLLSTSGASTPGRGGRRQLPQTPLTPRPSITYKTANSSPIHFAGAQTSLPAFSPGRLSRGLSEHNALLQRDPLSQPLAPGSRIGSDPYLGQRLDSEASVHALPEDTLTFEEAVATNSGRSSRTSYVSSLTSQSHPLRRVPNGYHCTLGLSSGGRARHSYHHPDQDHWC
Sequence of Voltage-gated N-type calcium channel alpha-1B subunit/Amyloid beta A4 precursor protein-binding family A member 1 (Q02410 whole entry): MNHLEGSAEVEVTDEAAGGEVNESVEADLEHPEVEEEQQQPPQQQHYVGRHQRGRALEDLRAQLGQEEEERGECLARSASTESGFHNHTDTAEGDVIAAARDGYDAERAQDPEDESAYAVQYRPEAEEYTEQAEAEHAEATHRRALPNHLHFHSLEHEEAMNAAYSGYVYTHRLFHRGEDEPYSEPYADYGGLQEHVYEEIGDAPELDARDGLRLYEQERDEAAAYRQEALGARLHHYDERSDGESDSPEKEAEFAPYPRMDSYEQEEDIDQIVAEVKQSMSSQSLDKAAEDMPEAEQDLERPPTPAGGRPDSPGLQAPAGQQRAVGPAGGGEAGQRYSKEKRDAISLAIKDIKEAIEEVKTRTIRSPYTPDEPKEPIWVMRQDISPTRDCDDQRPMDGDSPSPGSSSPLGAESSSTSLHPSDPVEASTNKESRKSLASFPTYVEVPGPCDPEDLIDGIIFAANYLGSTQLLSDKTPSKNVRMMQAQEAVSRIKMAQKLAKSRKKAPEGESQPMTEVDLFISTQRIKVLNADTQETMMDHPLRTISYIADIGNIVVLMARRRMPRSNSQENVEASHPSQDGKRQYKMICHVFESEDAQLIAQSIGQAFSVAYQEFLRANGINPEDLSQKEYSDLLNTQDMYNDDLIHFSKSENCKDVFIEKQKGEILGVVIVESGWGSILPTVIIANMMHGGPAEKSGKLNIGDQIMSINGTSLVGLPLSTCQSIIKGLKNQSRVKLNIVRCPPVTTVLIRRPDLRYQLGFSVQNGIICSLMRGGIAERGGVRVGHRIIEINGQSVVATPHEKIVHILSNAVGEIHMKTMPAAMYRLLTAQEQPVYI

T6 sequence (P11940 whole entry, the tested form may be a part): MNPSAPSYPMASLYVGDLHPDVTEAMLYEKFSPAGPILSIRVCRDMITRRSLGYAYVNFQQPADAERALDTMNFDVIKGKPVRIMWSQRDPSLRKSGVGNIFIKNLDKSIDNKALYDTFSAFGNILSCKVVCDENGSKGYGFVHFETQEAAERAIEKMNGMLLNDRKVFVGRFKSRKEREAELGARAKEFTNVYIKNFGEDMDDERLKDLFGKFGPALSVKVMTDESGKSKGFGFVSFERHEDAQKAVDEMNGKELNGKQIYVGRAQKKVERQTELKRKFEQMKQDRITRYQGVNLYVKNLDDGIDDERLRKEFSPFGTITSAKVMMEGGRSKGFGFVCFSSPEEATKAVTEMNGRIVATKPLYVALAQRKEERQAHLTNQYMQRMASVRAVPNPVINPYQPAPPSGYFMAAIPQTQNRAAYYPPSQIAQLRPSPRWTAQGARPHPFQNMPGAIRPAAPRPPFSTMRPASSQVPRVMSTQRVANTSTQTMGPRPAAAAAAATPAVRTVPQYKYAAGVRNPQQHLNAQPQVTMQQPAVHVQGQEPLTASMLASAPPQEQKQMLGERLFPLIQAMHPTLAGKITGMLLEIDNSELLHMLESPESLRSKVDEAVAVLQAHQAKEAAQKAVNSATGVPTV
Sequence of Cytochrome P450 3A4 (P08684 whole entry): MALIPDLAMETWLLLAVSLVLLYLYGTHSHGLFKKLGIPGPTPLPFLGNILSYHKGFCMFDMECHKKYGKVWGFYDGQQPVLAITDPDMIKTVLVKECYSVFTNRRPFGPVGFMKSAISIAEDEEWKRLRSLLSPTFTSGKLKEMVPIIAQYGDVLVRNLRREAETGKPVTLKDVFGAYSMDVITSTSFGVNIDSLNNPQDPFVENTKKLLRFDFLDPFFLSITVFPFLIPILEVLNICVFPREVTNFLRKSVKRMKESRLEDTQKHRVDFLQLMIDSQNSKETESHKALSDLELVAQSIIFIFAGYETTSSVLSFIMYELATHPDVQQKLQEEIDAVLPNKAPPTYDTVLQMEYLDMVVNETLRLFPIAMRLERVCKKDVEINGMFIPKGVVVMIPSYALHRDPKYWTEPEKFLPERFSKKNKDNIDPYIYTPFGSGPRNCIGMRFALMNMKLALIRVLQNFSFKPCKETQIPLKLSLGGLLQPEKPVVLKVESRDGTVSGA
Sequence of G-protein coupled receptor 55 (Q9Y2T6 whole entry): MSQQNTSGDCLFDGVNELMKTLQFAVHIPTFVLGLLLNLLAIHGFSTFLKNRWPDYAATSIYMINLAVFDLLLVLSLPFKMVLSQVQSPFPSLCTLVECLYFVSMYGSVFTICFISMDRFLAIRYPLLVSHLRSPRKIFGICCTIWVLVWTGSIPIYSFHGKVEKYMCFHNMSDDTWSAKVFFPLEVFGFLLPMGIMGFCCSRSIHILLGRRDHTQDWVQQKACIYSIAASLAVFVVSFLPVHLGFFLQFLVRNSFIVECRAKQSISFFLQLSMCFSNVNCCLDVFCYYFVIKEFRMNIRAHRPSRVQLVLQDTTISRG
Sequence of Protein Wnt-3a (P27467 whole entry): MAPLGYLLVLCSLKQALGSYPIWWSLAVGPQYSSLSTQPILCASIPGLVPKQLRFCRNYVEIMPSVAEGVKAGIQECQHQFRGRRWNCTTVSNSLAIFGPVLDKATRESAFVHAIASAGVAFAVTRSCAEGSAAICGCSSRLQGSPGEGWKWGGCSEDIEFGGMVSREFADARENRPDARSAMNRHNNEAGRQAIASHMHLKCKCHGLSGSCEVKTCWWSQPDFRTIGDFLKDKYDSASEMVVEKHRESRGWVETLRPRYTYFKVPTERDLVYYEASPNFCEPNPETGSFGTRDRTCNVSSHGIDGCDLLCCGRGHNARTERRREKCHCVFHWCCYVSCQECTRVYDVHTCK

## N#CC1=C(SCC(=O)c2ccc(Br)cc2)N=C2CCCC(O)=C2C1c1ccco1 (centres undefined)
[1]
  EC50: 5.58 µM (active)
[2]
  EC50: 4.34 µM (active)
[3]
  AC50: 2.13 µM (active)

## COC(=O)COc1ccc2c(=O)c(Oc3ccccc3)c(C)oc2c1
[4]
  IC50: 2.94 µM (active)
[5]
  Ki: > 66.7 µM (inactive)

## Cc1ccc(NC(=O)c2ccc([N+](=O)[O-])o2)c(C)c1
[6]
  CC50: > 20 µM (active)
[7]
  CC50: 15.4 µM (active)
[4]
  IC50: 3.46 µM (active)
[8]
  CC50: 6.74 µM (active)

## CCN1C(=O)/C(=C2\SC(=S)N(CCCOC)C2=O)c2ccccc21
[9]
  AC50: 11.2 µM (inconclusive)
[10]
  IC50: 62.7 µM (active)
[5]
  Ki: > 66.7 µM (inactive)
[11]
  AC50: 3.55 µM (inconclusive)

## Oc1[nH]c2ccc(Br)cc2c1N=Nc1nn[nH]n1
[12]
  EC50: 5.18 µM (active)
[13]
  IC50: 26.5 µM (active)
[14]
  EC50: 14 µM (active)

## Cc1ccc(Cl)cc1N1CCN(C(=O)c2ccc(NS(=O)(=O)c3c(C)noc3C)cc2)CC1
[1]
  EC50: 16.7 µM (active)
[2]
  EC50: 13.2 µM (active)

## OCCNc1nc(O)c2c(ncn2Cc2ccccc2)n1
[15]
  EC50: > 32 µM (inactive)

## C=CCOc1ccc(C2C(C(=O)c3cccs3)=C(O)C(=O)N2c2nnc(C)s2)cc1 (centres undefined)
[12]
  EC50: 3.06 µM (active)
[5]
  Ki: 40.5 µM (inactive)
[14]
  EC50: 10.8 µM (inconclusive)

## CCOc1cccc(C(=O)C2=C(O)C(=O)N(CCOC)C2c2ccc(C)o2)c1 (centres undefined)
[5]
  Ki: 13.5 µM (active)

## CCC1(C)Nc2ccccc2C(=O)N1O (centres undefined)
[1]
  EC50: > 20 µM (not active)
[2]
  EC50: 17.1 µM (active)

## NC(=O)c1nsc(C(=O)N(c2ccc(F)cc2)C(C(=O)NCC2CCCO2)c2c[nH]c3ccccc23)c1N (centres undefined)
[16]
  IC50: > 20 µM (inactive)

## O=C(CSc1nccn1-c1ncc(C(F)(F)F)cc1Cl)c1ccc(Cl)cc1
[17]
  IC50: > 66.6 µM (inactive)

## Cc1ccc(/C=C2\SC(=S)N(c3c(C)n(C)n(-c4ccccc4)c3=O)C2=O)cc1
[18]
  IC50: > 66 µM (inactive)
[19]
  IC50: > 66 µM (inactive)
[13]
  IC50: 120 µM (active)

## O=c1[nH]c2ccccc2n1C1CCN(C(c2ccccc2OC(F)(F)F)c2nnnn2-c2ccc3c(c2)OCCO3)CC1 (centres undefined)
[20]
  IC50: > 69.5 µM (inactive)
[21]
  AC50: 4.52 µM (active)

## CCOC(=O)C1=C(N)n2c(s/c(=C\c3ccco3)c2=O)=C(C(=O)OCC)C1c1ccco1 (centres undefined)
[1]
  EC50: 1.19 µM (active)
[22]
  EC50: > 120 µM (not active)
[2]
  EC50: 1.47 µM (active)
[23]
  EC50: > 120 µM (not active)
[24]
  EC50: > 120 µM (not active)
[11]
  AC50: 28.2 µM (inconclusive)

## O=C(N[C@@H]1C/C=C\C[C@@H](CC(=O)N(CCO)Cc2ccccc2)C(=O)NCCOC1=O)OCC1c2ccccc2-c2ccccc21
[25]
  IC50: 24.2 µM (inactive)

## O=C(CNC(=O)c1ccccc1Cl)N/N=C/c1ccc([N+](=O)[O-])s1
[6]
  CC50: > 20 µM (active)
[7]
  CC50: 25 µM (active)
[4]
  IC50: 36.6 µM (active)
[8]
  CC50: 13.6 µM (active)

## NS(=O)(=O)c1ccc(N/N=C/c2ccc3c(c2)OCO3)c([N+](=O)[O-])c1
[26]
  IC50: 3.59 µM (active)
